The source of these data is ChEMBL document CHEMBL1201862, “PubChem BioAssay data set” (2004).

Experiment [1] has as its target T1, Mitochondrial peptide methionine sulfoxide reductase (Bos taurus, UniProt P54149).
T1 sequence (P54149 whole entry): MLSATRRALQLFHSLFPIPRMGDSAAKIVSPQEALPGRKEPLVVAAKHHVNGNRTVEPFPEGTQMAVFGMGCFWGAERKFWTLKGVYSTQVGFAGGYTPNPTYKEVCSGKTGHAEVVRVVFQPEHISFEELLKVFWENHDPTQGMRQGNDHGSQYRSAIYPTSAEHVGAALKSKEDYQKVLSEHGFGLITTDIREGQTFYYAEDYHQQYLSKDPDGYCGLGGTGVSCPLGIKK
Nature of the experiment: Absorbance-based biochemical high throughput dose response assay for activators of Methionine sulfoxide reductase A (MsrA). The format is functional.

In experiment [2] the target is T2, Caspase-6 (Homo sapiens, UniProt P55212).
T2 sequence (P55212 whole entry): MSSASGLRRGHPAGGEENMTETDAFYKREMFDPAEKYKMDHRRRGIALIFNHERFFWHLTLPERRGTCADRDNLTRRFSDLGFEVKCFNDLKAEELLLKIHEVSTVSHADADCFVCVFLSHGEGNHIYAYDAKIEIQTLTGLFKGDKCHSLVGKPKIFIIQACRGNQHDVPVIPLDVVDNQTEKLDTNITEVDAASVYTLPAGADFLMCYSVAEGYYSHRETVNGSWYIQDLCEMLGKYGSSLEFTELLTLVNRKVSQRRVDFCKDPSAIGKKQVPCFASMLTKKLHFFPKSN
Briefly: inhibition of CASP6 peptide cleavage – biochemical, VEID-R110 fluorescence, cherry-pick, dose response (AID 720632).

Experiment [3] deals with Dual specificity protein kinase CLK2 (Homo sapiens, UniProt P49760). Format: functional.
Dual specificity protein kinase CLK2, sequence (P49760 whole entry): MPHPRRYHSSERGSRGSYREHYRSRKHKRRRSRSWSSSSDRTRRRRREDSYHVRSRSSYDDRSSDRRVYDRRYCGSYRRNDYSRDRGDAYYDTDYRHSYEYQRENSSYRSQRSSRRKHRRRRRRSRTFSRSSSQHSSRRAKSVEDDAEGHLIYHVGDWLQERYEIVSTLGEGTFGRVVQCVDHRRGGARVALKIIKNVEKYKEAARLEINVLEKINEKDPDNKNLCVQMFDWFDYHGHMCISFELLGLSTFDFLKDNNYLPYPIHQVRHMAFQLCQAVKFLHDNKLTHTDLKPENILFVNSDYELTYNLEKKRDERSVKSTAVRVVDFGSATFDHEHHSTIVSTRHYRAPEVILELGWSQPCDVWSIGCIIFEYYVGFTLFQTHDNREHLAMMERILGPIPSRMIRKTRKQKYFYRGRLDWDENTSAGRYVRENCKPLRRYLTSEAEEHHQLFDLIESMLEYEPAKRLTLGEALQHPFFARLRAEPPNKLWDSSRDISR
Experiment [4] addresses 5'-AMP-activated protein kinase catalytic subunit alpha-1 (Homo sapiens, UniProt Q13131). Format: functional.
Experiment [5] concerns the target ALK tyrosine kinase receptor (Homo sapiens, UniProt Q9UM73). Format: functional.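 Note: ALK tested as one member of a kinase panel screen.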
Experiment [6] concerns the target Tyrosine-protein kinase receptor TYRO3 (Homo sapiens, UniProt Q06418). The format is functional.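 Note: TYRO3 value obtained as one member of a kinome-wide profiling panel.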
Experiment [7] concerns the target Serine/threonine-protein kinase pim-1 (Homo sapiens, UniProt P11309). The format is functional.
Experiment [8] concerns the target Serine/threonine-protein kinase PAK 4 (Homo sapiens, UniProt O96013). The format is functional.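 Note: value obtained within a kinome profiling panel in which PAK4 was one of the panel members.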
Experiment [9] has as its target Casein kinase I isoform alpha (Homo sapiens, UniProt P48729). Format: functional.
Experiment [10] addresses High affinity nerve growth factor receptor (Homo sapiens, UniProt P04629). The format is functional.
The target in experiment [11] is Glycogen synthase kinase-3 alpha (Homo sapiens, UniProt P49840). The format is functional.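 Note: GSK3A result taken from a broad kinome-wide kinase panel.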
Glycogen synthase kinase-3 alpha, sequence (P49840 whole entry): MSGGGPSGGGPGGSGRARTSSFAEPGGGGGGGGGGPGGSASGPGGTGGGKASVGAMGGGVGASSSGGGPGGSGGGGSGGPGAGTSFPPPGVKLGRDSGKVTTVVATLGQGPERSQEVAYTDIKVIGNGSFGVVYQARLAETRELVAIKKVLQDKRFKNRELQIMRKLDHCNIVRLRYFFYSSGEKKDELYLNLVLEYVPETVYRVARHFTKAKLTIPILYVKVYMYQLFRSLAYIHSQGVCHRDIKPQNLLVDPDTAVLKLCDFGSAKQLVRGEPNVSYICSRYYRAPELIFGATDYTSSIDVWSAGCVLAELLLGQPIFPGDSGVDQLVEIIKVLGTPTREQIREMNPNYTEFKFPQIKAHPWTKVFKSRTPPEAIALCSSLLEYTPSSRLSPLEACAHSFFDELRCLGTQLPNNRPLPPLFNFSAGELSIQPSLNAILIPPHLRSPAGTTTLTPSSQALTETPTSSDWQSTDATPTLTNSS
Experiment [12] addresses Hepatocyte growth factor receptor (Homo sapiens, UniProt P08581). The format is functional.
Experiment [13] has as its target Activated CDC42 kinase 1 (Homo sapiens, UniProt Q07912). Briefly: Navigating the Kinome. Panel member name: ACK1. Format: functional.
The target of experiment [14] is T3, Receptor-type tyrosine-protein kinase FLT3 (Homo sapiens, UniProt P36888).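 Note: FLT3 was tested as one member of a kinome-wide kinase panel.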
T3 sequence (P36888 whole entry): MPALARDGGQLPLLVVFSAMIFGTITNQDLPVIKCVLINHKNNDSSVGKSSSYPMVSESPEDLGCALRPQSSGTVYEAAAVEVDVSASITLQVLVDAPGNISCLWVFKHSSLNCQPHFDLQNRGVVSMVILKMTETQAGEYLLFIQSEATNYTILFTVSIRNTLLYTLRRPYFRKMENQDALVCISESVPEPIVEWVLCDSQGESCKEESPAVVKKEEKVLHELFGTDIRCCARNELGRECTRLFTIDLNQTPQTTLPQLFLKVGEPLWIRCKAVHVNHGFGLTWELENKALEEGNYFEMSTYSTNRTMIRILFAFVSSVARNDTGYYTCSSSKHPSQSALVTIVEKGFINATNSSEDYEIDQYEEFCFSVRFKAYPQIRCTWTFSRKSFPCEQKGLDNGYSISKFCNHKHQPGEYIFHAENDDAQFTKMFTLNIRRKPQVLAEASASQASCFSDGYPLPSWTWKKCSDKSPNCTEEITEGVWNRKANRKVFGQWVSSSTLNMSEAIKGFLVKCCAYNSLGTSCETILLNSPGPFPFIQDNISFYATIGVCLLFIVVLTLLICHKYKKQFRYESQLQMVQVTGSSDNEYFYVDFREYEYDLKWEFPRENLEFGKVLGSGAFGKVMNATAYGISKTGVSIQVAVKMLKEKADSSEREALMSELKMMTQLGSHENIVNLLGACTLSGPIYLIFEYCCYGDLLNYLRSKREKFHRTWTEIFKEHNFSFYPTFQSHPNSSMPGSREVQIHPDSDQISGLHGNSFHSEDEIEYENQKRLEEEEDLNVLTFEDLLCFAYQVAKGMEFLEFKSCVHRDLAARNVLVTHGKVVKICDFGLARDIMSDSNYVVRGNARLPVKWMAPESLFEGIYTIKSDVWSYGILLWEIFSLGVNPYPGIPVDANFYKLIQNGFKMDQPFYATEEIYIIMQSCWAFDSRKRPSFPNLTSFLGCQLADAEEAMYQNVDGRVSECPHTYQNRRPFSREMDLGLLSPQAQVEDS
The format is functional.

Experiment [15] concerns the target Dual specificity tyrosine-phosphorylation-regulated kinase 1B (Homo sapiens, UniProt Q9Y463). Briefly: Navigating the Kinome. Panel member name: DYRK1B. The format is functional.
The target of experiment [16] is Platelet-derived growth factor receptor alpha (Homo sapiens, UniProt P16234). Nature of the experiment: Navigating the Kinome. Panel member name: PDGFRA. Format: functional.
Platelet-derived growth factor receptor alpha, sequence (P16234 whole entry): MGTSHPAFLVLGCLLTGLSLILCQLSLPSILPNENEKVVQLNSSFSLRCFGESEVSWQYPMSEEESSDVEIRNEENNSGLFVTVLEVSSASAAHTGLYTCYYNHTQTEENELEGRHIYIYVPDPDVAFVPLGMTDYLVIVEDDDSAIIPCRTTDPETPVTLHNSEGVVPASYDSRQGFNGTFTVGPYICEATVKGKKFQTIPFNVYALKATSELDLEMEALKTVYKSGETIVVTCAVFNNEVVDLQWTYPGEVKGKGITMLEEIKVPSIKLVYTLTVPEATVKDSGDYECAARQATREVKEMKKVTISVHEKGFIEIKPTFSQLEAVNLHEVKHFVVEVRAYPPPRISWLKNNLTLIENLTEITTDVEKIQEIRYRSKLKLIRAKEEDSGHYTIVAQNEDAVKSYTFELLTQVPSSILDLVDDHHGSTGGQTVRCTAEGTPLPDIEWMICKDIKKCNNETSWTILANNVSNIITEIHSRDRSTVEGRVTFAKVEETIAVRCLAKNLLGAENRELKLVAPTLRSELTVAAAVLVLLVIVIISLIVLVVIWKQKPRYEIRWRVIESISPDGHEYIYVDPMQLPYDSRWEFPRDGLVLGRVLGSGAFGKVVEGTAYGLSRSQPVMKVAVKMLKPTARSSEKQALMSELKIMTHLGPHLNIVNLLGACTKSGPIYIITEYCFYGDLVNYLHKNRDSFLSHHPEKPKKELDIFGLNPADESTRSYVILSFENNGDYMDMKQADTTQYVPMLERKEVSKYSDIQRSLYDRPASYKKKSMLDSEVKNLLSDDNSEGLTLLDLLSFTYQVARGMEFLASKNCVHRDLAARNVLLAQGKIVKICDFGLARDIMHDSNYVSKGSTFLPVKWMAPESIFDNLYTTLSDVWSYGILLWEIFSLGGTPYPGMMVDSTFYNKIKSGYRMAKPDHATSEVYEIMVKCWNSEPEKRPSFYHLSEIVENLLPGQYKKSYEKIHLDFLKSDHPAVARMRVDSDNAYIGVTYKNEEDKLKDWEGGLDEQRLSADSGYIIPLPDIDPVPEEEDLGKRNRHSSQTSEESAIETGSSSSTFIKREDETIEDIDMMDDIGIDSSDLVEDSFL
Experiment [17] deals with Macrophage colony-stimulating factor 1 receptor (Homo sapiens, UniProt P07333). The format is functional.
Experiment [18] deals with Dual specificity mitogen-activated protein kinase kinase 2 (Homo sapiens, UniProt P36507). Nature of the experiment: Navigating the Kinome. Panel member name: MAP2K2. The format is functional.
Experiment [19] deals with Rho-associated protein kinase 2 (Homo sapiens, UniProt O75116). The format is functional.
Experiment [20] addresses SRSF protein kinase 1 (Homo sapiens, UniProt Q96SB4). Format: functional.
Experiment [21] addresses Tyrosine-protein kinase Blk (Homo sapiens, UniProt P51451). Format: functional.
Experiment [22] concerns the target Non-receptor tyrosine-protein kinase TYK2 (Homo sapiens, UniProt P29597). The format is functional.
Experiment [23] addresses Interleukin-1 receptor-associated kinase 4 (Homo sapiens, UniProt Q9NWZ3). Format: functional.

The structures appear in SMILES notation. The source made the active and inactive calls.

As usually defined, the EC50 is the concentration giving half of the maximal effect. As a reminder, the AC50 is the concentration at which the activity in the assay is half-maximal. The term Ki denotes a measure of affinity in units of concentration, obtained from inhibition or displacement. A word on the pKi: it is the Ki on a negative log10 scale, so that one unit is a factor of ten. A higher pKi goes with a low Ki.

Serine/threonine-protein kinase pim-1, sequence (P11309 whole entry): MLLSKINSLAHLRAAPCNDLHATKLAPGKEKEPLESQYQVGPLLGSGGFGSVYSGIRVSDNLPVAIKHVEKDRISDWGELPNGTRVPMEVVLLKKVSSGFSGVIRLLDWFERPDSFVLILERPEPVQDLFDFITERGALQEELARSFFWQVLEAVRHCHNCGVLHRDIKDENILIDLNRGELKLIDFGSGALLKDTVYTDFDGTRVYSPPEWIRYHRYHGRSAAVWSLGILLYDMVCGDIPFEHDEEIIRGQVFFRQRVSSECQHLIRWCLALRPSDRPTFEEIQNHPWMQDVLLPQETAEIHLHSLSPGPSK
Activated CDC42 kinase 1, sequence (Q07912 whole entry): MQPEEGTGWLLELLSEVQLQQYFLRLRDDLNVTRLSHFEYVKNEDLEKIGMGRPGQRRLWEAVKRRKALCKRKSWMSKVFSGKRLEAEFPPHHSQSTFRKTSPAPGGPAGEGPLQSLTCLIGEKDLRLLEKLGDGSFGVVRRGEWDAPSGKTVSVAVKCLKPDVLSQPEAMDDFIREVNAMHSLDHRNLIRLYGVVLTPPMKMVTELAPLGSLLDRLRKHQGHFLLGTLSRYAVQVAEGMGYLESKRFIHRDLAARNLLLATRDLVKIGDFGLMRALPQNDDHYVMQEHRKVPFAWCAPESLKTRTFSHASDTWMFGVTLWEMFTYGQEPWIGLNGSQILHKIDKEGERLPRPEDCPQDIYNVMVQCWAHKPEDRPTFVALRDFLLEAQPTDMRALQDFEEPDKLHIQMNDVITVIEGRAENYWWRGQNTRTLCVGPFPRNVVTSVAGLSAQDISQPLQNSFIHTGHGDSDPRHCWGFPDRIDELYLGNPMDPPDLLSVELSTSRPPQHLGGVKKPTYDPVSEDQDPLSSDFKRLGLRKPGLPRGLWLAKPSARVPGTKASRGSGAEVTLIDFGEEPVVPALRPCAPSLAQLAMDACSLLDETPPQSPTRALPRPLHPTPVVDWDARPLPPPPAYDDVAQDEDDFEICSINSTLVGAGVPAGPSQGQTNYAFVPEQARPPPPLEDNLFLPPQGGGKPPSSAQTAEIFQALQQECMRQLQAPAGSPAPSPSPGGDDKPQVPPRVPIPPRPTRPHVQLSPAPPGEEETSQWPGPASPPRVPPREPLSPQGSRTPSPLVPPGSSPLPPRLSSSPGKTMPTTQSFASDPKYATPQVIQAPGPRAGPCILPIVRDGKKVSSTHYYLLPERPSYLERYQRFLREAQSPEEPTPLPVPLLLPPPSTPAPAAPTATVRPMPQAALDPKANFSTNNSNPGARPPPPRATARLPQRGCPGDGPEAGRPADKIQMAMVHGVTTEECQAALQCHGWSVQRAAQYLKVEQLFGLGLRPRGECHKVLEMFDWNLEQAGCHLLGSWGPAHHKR
Serine/threonine-protein kinase PAK 4, sequence (O96013 whole entry, canonical isoform): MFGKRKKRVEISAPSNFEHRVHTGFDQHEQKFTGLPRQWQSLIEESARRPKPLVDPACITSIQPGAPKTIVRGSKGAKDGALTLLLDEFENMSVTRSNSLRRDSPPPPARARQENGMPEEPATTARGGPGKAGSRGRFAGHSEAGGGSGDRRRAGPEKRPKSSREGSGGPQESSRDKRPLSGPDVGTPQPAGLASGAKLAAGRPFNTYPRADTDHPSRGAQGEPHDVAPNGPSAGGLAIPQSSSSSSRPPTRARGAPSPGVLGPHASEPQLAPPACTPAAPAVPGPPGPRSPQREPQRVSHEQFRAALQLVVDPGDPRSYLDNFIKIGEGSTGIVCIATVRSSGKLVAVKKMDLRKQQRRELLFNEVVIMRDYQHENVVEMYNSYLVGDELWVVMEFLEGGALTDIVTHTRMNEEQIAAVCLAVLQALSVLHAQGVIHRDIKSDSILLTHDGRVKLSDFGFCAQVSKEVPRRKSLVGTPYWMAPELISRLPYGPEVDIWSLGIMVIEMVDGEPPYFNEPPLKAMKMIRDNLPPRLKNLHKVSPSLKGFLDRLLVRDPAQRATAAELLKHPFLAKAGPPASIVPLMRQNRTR
High affinity nerve growth factor receptor, sequence (P04629 whole entry): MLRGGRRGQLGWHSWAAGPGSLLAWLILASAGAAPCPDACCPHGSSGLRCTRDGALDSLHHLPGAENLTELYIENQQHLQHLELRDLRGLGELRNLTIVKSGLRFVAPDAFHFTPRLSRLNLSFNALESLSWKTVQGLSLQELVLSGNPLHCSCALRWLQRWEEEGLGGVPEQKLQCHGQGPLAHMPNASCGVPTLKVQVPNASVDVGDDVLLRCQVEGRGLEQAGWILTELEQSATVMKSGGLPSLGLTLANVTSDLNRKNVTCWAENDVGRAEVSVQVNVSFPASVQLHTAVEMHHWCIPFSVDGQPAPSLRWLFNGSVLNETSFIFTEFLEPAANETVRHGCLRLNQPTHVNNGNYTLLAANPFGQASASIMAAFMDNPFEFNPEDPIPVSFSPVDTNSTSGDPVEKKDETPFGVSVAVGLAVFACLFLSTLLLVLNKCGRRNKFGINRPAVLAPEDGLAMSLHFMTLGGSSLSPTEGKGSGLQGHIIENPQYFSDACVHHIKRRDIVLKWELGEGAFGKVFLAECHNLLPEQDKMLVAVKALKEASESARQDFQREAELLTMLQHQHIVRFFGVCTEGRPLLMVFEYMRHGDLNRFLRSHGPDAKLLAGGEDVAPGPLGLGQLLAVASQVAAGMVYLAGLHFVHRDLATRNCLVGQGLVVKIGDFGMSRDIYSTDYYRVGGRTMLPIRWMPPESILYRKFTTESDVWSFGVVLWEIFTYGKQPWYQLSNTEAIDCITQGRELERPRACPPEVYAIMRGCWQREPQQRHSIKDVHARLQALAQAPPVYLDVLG

As to `O=C(COC(=O)c1ccc([N+](=O)[O-])s1)Nc1ccc(F)cc1`, the EC50 in experiment [1] was > 104000 nM (inactive). In addition, the AC50 in experiment [2] was 1960 nM (active).
As to `COc1cccc(CNC(=O)c2cnc(-c3ccncc3)nc2)c1`, the Ki is > 3980 nM (inactive) in [3]; > 3160 nM (inactive) in [4]; > 6310 nM (inactive) in [5]; > 3160 nM (inactive) in experiment [6]; > 6310 nM (inactive) in experiment [7]; > 5010 nM (inactive) in experiment [8]. Moreover, the Ki in experiment [9] is > 3980 nM (inactive); in experiment [10] it was > 3160 nM (inactive); in experiment [11], > 3980 nM (inactive); in experiment [12], > 2510 nM (inactive); in [13], > 3980 nM (inactive); in experiment [14], > 3160 nM (inactive). Besides, the Ki in [15] was > 2510 nM (inactive); in experiment [16], > 2510 nM (inactive); in experiment [17] it was > 2510 nM (inactive); in experiment [18] it was > 3980 nM (inactive).
Consider `CCN(CC)CCCC(C)n1c2nc(=O)[nH]c(=O)c-2nc2cc(Cl)ccc21` (stereo unspecified), for which the EC50 in [1] was 32900 nM (inactive). Moreover, the AC50 in experiment [2] is 305 nM (active).
Regarding `OC1CCC(Nc2nc(Cl)cc(-c3c[nH]c4ncccc34)n2)CC1` (stereo unspecified), the Ki in experiment [3] is 7.94 nM (active); in [4] it was 126 nM (active); in [5] it was > 1260 nM (inactive); in experiment [6] it was > 2000 nM (inactive); in experiment [19], > 3.98 nM (inactive); in [20], 1000 nM (active). In addition, the Ki in experiment [7] was 1000 nM (active); in experiment [8], 25.1 nM (active); in experiment [9], 63.1 nM (active); in experiment [21], > 1580 nM (inactive); in experiment [10], 398 nM (active); in experiment [22], 1000 nM (active). The Ki in experiment [11] was 63.1 nM (active); in experiment [12], > 3160 nM (inactive); in [13], 3160 nM (active); in [14], 12.6 nM (active); in [15], 2.51 nM (active); in experiment [16] it was 1000 nM (active). Moreover, the results for the inhibition constant (Ki) in experiment [23], in experiment [17] and in experiment [18] were 39.8 nM (active), 200 nM (active) and 50.1 nM (active), respectively. Also, the negative-log Ki (pKi) in experiment [3] is reported as 8.1; in [4], 6.9; in experiment [20] it was 6; in experiment [7], 6; in [8], 7.6; in [9], 7.2. The negative-log Ki (pKi) came to 6.4 in [10]; 7.2 in experiment [11]; 5.5 in [13]; 7.9 in experiment [14]; 8.6 in experiment [15]; 6 in [16]. The values for the pKi in [23], in [17] and in [18] were 7.4, 6.7 and 7.3, respectively.
